# Assays:
# [1] = molecular target: T1, human mGlu5a receptor (Homo sapiens, UniProt P41594); experiment: Intracellular Ca2+ mobilization assay (mGlu5 PAM); format: cell-based; design: expressed in transfected cells; settings: for Emax: HEK293, maximal response in % of maximal stimulatory effect of saturating L-glutamate, HEK-293 human mGlu5a, read-out: Eff. (%); for EC50: HEK-293 cells stably expressing human mGlu5a, L-glutamate added at EC20, read-out: EC50 (nM) mGlu5PAM
# Method: A monoclonal HEK-293 cell line stably transfected with a cDNA encoding for the human mGlu5a receptor was generated; for the work with mGlu5 Positive Allosteric Modulators (PAMs), a cell line with low receptor expression levels and low constitutive receptor activity was selected to allow the differentiation of agonistic versus PAM activity. Cells were cultured according to standard protocols (Freshney, 2000) in Dulbecco's Modified Eagle Medium with high glucose supplemented with 1 mM glutamine, 10% (vol/vol) heat-inactivated bovine calf serum, Penicillin/Streptomycin, 50 μg/ml hygromycin and 15 μg/ml blasticidin (all cell culture reagents and antibiotics from Invitrogen, Basel, Switzerland).
# About 24 hrs before an experiment, 5×10^4 cells/well were seeded in poly-D-lysine coated, black/clear-bottomed 96-well plates. The cells were loaded with 2.5 μM Fluo-4AM in loading buffer (1×HBSS, 20 mM HEPES) for 1 hr at 37° C. and washed five times with loading buffer. The cells were transferred into a Functional Drug Screening System 7000 (Hamamatsu, Paris, France), and 11 half logarithmic serial dilutions of test compound at 37° C. were added and the cells were incubated for 10-30 min with on-line recording of fluorescence. Following this pre-incubation step, the agonist L-glutamate was added to the cells at a concentration corresponding to EC20 (typically around 80 μM) with on-line recording of fluorescence; in order to account for day-to-day variations in the responsiveness of cells, the EC20 of glutamate was determined immediately ahead of each experiment by recording of a full dose-response curve of glutamate.
# Responses were measured as peak increase in fluorescence minus basal (i.e. fluorescence without addition of L-glutamate), normalized to the maximal stimulatory effect obtained with saturating concentrations of L-glutamate. Graphs were plotted with the % maximal stimulatory using XLfit, a curve fitting program that iteratively plots the data using Levenburg Marquardt algorithm. The single site competition analysis equation used was y=A+((B−A)/(1+((x/C)D))), where y is the % maximal stimulatory effect, A is the minimum y, B is the maximum y, C is the EC50, x is the log 10 of the concentration of the competing compound and D is the slope of the curve (the Hill Coefficient). From these curves the EC50 (concentration at which half maximal stimulation was achieved), the Hill coefficient as well as the maximal response in % of the maximal stimulatory effect obtained with saturating concentrations of L-glutamate were calculated.
# A depression of the signal observed after addition of the EC20 concentration of L-glutamate was indicative of an inhibitory activity of the test compound.
# In the table below are shown the prepared compounds 1-24 with corresponding results (EC50 in nM).
# [2] = molecular target: T1, human mGlu5a receptor; experiment: [3H]MPEP binding competition on human mGlu5a receptor membranes; design: expressed in transfected cells; host or cells: EBNA cells (transient), membrane homogenates; settings: [3H]MPEP (2 nM) competition, EBNA cell membranes, 1 h at 4° C.; read-out: Human mGluR5 Ki
# Method: Examples 18, 20-22 have been tested on human mGluR5 receptor using the following method:
# For binding experiments, cDNA encoding human mGlu 5a receptor was transiently transfected into EBNA cells using a procedure described by Schlaeger and Christensen [Cytotechnology 15:1-13 (1998)]. Cell membrane homogenates were stored at −80° C. until the day of assay where upon they were thawed and resuspended and polytronized in 15 mM Tris-HCl, 120 mM NaCl, 100 mM KCl, 25 mM CaCl2, 25 mM MgCl2 binding buffer at pH 7.4 to a final assay concentration of 20 μg protein/well.
# Saturation isotherms were determined by addition of twelve [^3H]MPEP concentrations (0.04-100 nM) to these membranes (in a total volume of 200 μl) for 1 h at 4° C. Competition experiments were performed with a fixed concentration of [^3H]MPEP (2 nM) and IC50 values of test compounds evaluated using 11 concentrations (0.3-10,000 nM). Incubations were performed for 1 h at 4° C.
# At the end of the incubation, membranes were filtered onto unifilter (96-well white microplate with bonded GF/C filter preincubated 1 h in 0.1% PEI in wash buffer, Packard BioScience, Meriden, Conn.) with a Filtermate 96 harvester (Packard BioScience) and washed 3 times with cold 50 mM Tris-HCl, pH 7.4 buffer. Nonspecific binding was measured in the presence of 10 μM MPEP. The radioactivity on the filter was counted (3 min) on a Packard Top-count microplate scintillation counter with quenching correction after addition of 45 μl of microscint 40 (Canberra Packard S.A., Zürich, Switzerland) and shaking for 20 min.
# For binding experiments the Ki values of the compounds tested are given. The Ki value is defined by the following formula: Ki=IC50/[1+L/Kd] in which the IC50 values are those concentrations of the compounds tested which cause 50% inhibition of the competing radioligand ([^3H]MPEP). L is the concentration of radioligand used in the binding experiment and the Kd value of the radioligand is empirically determined for each batch of membranes prepared.
# T1 sequence (P41594 21-1180 isoform P41594-2 limits assumed): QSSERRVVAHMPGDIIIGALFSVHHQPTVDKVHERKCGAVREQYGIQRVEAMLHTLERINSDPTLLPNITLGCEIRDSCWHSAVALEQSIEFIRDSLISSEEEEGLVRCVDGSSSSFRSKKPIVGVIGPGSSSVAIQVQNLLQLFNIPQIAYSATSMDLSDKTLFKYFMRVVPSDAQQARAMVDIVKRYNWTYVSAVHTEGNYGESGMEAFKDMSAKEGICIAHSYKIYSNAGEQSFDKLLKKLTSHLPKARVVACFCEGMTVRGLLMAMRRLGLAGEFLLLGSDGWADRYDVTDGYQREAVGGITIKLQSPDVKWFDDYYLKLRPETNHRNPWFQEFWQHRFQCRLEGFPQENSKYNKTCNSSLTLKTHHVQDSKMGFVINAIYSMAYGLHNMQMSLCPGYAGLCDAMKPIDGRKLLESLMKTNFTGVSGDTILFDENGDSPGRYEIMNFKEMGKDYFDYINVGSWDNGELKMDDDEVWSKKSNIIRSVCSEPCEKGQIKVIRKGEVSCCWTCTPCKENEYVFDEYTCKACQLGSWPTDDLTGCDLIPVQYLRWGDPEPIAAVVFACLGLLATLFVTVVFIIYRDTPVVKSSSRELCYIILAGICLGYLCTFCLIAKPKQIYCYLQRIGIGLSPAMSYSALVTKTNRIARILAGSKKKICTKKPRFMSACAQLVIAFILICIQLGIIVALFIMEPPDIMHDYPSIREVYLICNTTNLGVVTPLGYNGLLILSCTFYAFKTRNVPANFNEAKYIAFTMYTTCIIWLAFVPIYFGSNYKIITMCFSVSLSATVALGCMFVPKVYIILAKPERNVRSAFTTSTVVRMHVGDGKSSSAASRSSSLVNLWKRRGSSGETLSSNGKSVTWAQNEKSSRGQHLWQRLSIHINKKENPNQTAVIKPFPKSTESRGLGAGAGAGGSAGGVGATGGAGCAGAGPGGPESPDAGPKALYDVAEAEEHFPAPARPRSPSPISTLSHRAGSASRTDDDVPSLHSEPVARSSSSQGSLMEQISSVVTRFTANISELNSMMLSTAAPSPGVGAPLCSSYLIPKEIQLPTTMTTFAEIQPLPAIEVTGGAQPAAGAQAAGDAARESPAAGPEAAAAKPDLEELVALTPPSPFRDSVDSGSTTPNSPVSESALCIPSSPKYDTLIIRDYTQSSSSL
SMILES,Emax [1] [%],EC50 [1] [nM],Ki [2] [nM]
"CN1N(c2ncc(C#Cc3ccc(F)cc3)cn2)C(=O)CC1(C)C [Example 16, 2-[5-(4-Fluoro-phenylethynyl)-pyrimidin-2-yl]-1,5,5-trimethyl-pyrazolidin-3-one]",69,56,–
"Cc1cccc(C#Cc2ccc(N3C(=O)CC(C)(C)N3C)nc2)c1 [Example 4, 1,5,5-Trimethyl-2-(5-m-tolylethynyl-pyridin-2-yl)-pyrazolidin-3-one]",72,72,–
"CC1(C)CC(=O)N(c2ncc(C#Cc3ccccc3)cn2)N1 [Example 9, 5,5-Dimethyl-2-(5-phenylethynyl-pyrimidin-2-yl)-pyrazolidin-3-one]",39,46,–
"CN1N(c2ccc(C#Cc3ccnc(Cl)c3)cn2)C(=O)CC1(C)C [Example 18, 2-[5-(2-Chloro-pyridin-4-ylethynyl)-pyridin-2-yl]-1,5,5-trimethyl-pyrazolidin-3-one]",–,–,103
"CN1N(c2ncc(C#Cc3ccccc3)cn2)C(=O)CC1(C)C [Example 14, 1,5,5-Trimethyl-2-(5-phenylethynyl-pyrimidin-2-yl)-pyrazolidin-3-one]",66,33,–
"CCN1C(C(C)C)CC(=O)N1c1ccc(C#Cc2ccccc2)cn1 (racemic) [Example 23, (RS)-1-Ethyl-5-isopropyl-2-(5-phenylethynyl-pyridin-2-yl)-pyrazolidin-3-one]",46,106,–
"O=C1CC2CCCN2N1c1ncc(C#Cc2ccc(F)cc2)cn1 (racemic) [Example 13, (RS)-1-[5-(4-Fluoro-phenylethynyl)-pyrimidin-2-yl]-tetrahydro-pyrrolo[1,2-b]pyrazol-2-one]",58,41,–
"CC1(C)CC(=O)N(c2ccc(C#Cc3cc(F)ccc3F)cn2)N1 [Example 20, 2-[5-(2,5-Difluoro-phenylethynyl)-pyridin-2-yl]-5,5-dimethyl-pyrazolidin-3-one]",–,–,69.7
"CC1(C)CC(=O)N(c2ccc(C#Cc3cc(F)ccc3F)nn2)N1 [Example 19, 2-[6-(2,5-Difluoro-phenylethynyl)-pyridazin-3-yl]-5,5-dimethyl-pyrazolidin-3-one]",86,86,–
"O=C1CC2CCCN2N1c1ncc(C#Cc2cccc(F)c2)cn1 (racemic) [Example 12, (RS)-1-[5-(3-Fluoro-phenylethynyl)-pyrimidin-2-yl]-tetrahydro-pyrrolo[1,2-b]pyrazol-2-one]",59,22,–
"CC1(C)CC(=O)N(c2ccc(C#Cc3ccccc3)cn2)N1 [Example 1, 5,5-Dimethyl-2-(5-phenylethynyl-pyridin-2-yl)-pyrazolidin-3-one]",60,7,–
"CN1N(c2ccc(C#Cc3cccc(F)c3)cn2)C(=O)CC1(C)C [Example 6, 2-[5-(3-Fluoro-phenylethynyl)-pyridin-2-yl]-1,5,5-trimethyl-pyrazolidin-3-one]",109,36,–
"CN1N(c2ccc(C#Cc3cccc(Cl)c3)cn2)C(=O)CC1(C)C [Example 7, 2-[5-(3-Chloro-phenylethynyl)-pyridin-2-yl]-1,5,5-trimethyl-pyrazolidin-3-one]",55,90,–
"O=C1CC2CCCN2N1c1ncc(C#Cc2ccccc2)cn1 (racemic) [Example 11, (RS)-1-(5-Phenylethynyl-pyrimidin-2-yl)-tetrahydro-pyrrolo[1,2-b]pyrazol-2-one]",55,60,–
"O=C1CC2CCCN2N1c1ccc(C#Cc2ccccc2)cn1 (racemic) [Example 10, (RS)-1-(5-Phenylethynyl-pyridin-2-yl)-tetrahydro-pyrrolo[1,2-b]pyrazol-2-one]",73,35,–
"CN1N(c2ccc(C#Cc3ccccc3)cn2)C(=O)CC1(C)C [Example 3, 1,5,5-Trimethyl-2-(5-phenylethynyl-pyridin-2-yl)-pyrazolidin-3-one]",96,30,–
"CC1(C)CC(=O)N(c2ccc(C#Cc3cccc(F)c3)cn2)N1 [Example 5, 2-[5-(3-Fluoro-phenylethynyl)-pyridin-2-yl]-5,5-dimethyl-pyrazolidin-3-one]",31,13,–
"CN1N(c2ncc(C#Cc3cccc(F)c3)cn2)C(=O)CC1(C)C [Example 15, 2-[5-(3-Fluoro-phenylethynyl)-pyrimidin-2-yl]-1,5,5-trimethyl-pyrazolidin-3-one]",61,34,–
"CC(C)C1CC(=O)N(c2ccc(C#Cc3ccccc3)cn2)N1 (racemic) [Example 2, (RS)-5-Isopropyl-2-(5-phenylethynyl-pyridin-2-yl)-pyrazolidin-3-one]",73,24,–
"CC1(C(F)(F)F)CC(=O)N(c2ccc(C#Cc3ccccc3)cn2)N1 (racemic) [Example 24, (RS)-5-Methyl-2-(5-phenylethynyl-pyridin-2-yl)-5-trifluoromethyl-pyrazolidin-3-one]",92,71,–
"CN1N(c2ncc(C#Cc3cc(F)ccc3F)cn2)C(=O)CC1(C)C [Example 17, 2-[5-(2,5-Difluoro-phenylethynyl)-pyrimidin-2-yl]-1,5,5-trimethyl-pyrazolidin-3-one]",47,35,–
"CCN1N(c2ccc(C#Cc3ccccc3)cn2)C(=O)CC1(C)C [Example 21, 1-Ethyl-5,5-dimethyl-2-(5-phenylethynyl-pyridin-2-yl)-pyrazolidin-3-one]",–,–,53.5
"CC1(C)CC(=O)N(c2ccc(C#Cc3ccc(F)cc3)cn2)N1 [Example 8, 2-[5-(4-Fluoro-phenylethynyl)-pyridin-2-yl]-5,5-dimethyl-pyrazolidin-3-one]",38,13,–
